Broadly, the IC50 is the concentration needed to halve the response being measured. A low value points to higher potency. A word on the melting point: it is the temperature of the solid-liquid transition.

These results are taken from publication PMC9061853, “Luminescent bis(benzo[d]thiazolyl)quinoxaline: facile synthesis, nucleic acid and protein BSA interaction, live-cell imaging, biopharmaceutical research and cancer theranostic application” (RSC Advances, 2019).

One data set concerns HeLa. As to the kind of experiment: MTT cytotoxicity assay, HeLa. Format: cell-based, human. The following applies: for IC50: 24 h incubation; for SF (selectivity factor) HeLa: ratio of IC50 for HEK-293 to IC50 for HeLa. The procedure:
(§1) Cytotoxicity studies were performed for all the synthesized quinoxaline compounds (7a–7g) using standard 3-(4,5-dimethylthiazol-2-yl)-2,5-diphenyltetrazolium bromide (MTT) assay beside a panel of cancer cell lines such as human epithelioid cervix carcinoma (HeLa), human colorectal adenocarcinoma cell line (Caco-2) and one normal human embryonic kidney cells (HEK-293) in triplicates (Table 3). […] It is noteworthy to mention that Compound 7a and 7g presented best cytoselectivity in HeLa and Caco-2 cell lines respectively. […]
(§2) In vitro cytotoxic activities (MTT assay):
(§3) The basic detection of cytotoxicity of anticancer compounds in vitro is MTT assay. The MTT proliferation assay is based on the reduction of the yellow MTT tetrazolium salt (3-[4,5-dimethylthiazol-2-yl]-2,5diphenyltetrazolium bromide) by mitochondrial dehydrogenases to form a purple MTT formazan crystals in viable cells. Synthesized compounds (7a-g) were prior dissolved in 0.1% DMSO and then serial dilution with medium and used in the experiment. Three different types of cancer cell lines were used in this experiment i.e., human Epitheloid Cervix Carcinoma (HeLa), human colon cancer cell line (Caco-2) and one normal kidney cell (HEK-293) were used in the assay. The cells were harvested at the log phase and it is cell counted using haemocytometer. Approximately 1 × 10^3 cells per well were seeded using all the cell lines. They were cultured in 100 μL of a DMEM media in 96-well plates and incubated at 37 °C for 24 hours under a 5% CO2 atmosphere. The cells were then washed with 1X PBS buffer and fresh media was added to the cells. The cells were then treated with different concentrations of the drugs (0.65-150 µM) in the volume of […] /well. Cisplatin has been used as a standard positive control drug. The control wells contains the same cell count of 1 × 10^3 cells per well of 100 μL medium containing 0.1% DMSO. After 24 h (for HeLa cell and HEK-293) and 72 h (for Caco-2), the medium was discarded and it is washed with 1X PBS and it was incubated with 100 µl of MTT reagent (1 mg/ml) for 4 h at 37°C.
(§4) Then the 96 well plate was placed on the shaker for 10 min and subsequently the absorbance was recorded by the ELISA reader at λ = 490 nm. The experiments were performed in […]
(§5) triplicate. […]
Background: Formazan colour is commonly taken as a measure of viable cells.

The test system of the next data set is HEK-293. The data set can be described thus: MTT cytotoxicity assay, HEK-293 normal cells. Format: cell-based, human. The settings on record: 24 h incubation. The procedure: as §1, §2, §3, §4, §5
A short description of data set [1]: MTT cytotoxicity assay, Caco-2. The following applies: human, Caco-2, ratio of IC50 for HEK-293 to IC50 for Caco-2; read-out: SF (selectivity factor) Caco-2. Format: cell-based, human.
Source text: as §2
as §3, with “/well.” for “/well. Cisplatin has been used as a standard positive control drug. The control wells contains the same cell count of 1 × 10^3 cells per well of 100 μL medium containing 0.1% DMSO. After 24 h (for HeLa cell and HEK-293) and 72 h (for Caco-2), the medium was discarded and it is washed with 1X PBS and it was incubated with 100 µl of MTT reagent (1 mg/ml) for 4 h at 37°C.”
(§6) The control wells contains the same cell count of 1 × 10^3 cells per well of 100 μL medium containing 0.1% DMSO. After 24 h (for HeLa cell and HEK-293) and 72 h (for Caco-2), the medium was discarded and it is washed with 1X PBS and it was incubated with 100 µl of MTT reagent (1 mg/ml) for 4 h at 37°C.
as §4, §5

The test system of a further data set is Caco-2. As to the kind of experiment: MTT cytotoxicity assay, Caco-2. The format is cell-based, human. The following applies: Homo sapiens, Caco-2; 72 h incubation.
Source text: as §2
as §3, with “/well.” for “/well. Cisplatin has been used as a standard positive control drug. The control wells contains the same cell count of 1 × 10^3 cells per well of 100 μL medium containing 0.1% DMSO. After 24 h (for HeLa cell and HEK-293) and 72 h (for Caco-2), the medium was discarded and it is washed with 1X PBS and it was incubated with 100 µl of MTT reagent (1 mg/ml) for 4 h at 37°C.”
as §6, §4, §5

Data set [2] in a line: Fluorescence quantum yield in water. The format is physicochemical. The following applies: 298 K, quinine sulphate as standard. The method, then: To know the absorption and emission behaviour of these synthesized compounds (7a–g), a standard concentration (3 × 10^−6 mol l^−1) in water has been used. In UV-vis spectra, λmax of all these compounds are observed at 320–330 nm due to π–π* transition (Fig. S1a ^†). The corresponding emission peaks are observed at 400–500 nm (Fig. S1b ^†). The emission of quantum yield (Φ) was calculated for all of the compounds (7a–g) using eqn (1) (Table S1 ^†). […]
2.6.2. Fluorescence study:
To know the emission property of all the synthesized complexes (7a-g), an initial investigation was performed using spectrofluorometric method in water by using absorption maximum as their excitation energy. Fluorescence quantum yield (Ф) of all the prepared compounds performed in water solution were calculated by employing the comparative William's method which involves the use of well-characterized standard with the known quantum yield value. Quinine sulphate was used as reference fluorophore excited at 350 nm and emission at 452 nm, quantum yield (ФR) = 0.50 in 1N H2SO4. The gradients of the plots are proportional to the quantum yield (Ф) of the studied system. The data obtained and quantum yield value calculated according to the equation (2): […]
Where, φ = Quantum yield, I = Peak Area, OD = absorbance at λmax, η = Refractive index of solvent and reference. Here, we have used Quinine Sulphate as a standard for calculating emission of quantum yield. […]

Consider `N.N.[Cl][Pt][Cl]` [Cisplatin, reference compound], for which the figures for the half-inhibitory concentration (IC50) in the data set with HeLa and in the data set on HEK-293 were 14.5 ± 0.8 µM and 50 ± 1.2 µM, respectively.

In turn, `c1ccc(-c2nc3ccccc3s2)c(OCc2nc3ccccc3nc2COc2ccccc2-c2nc3ccccc3s2)c1` [Compound 7a] had a melting point of 130 to 135 °C. The same molecule displayed an IC50 with HeLa (Homo sapiens, HeLa) of 73.1 ± 1.7 µM. Besides, the “SF (selectivity factor) HeLa” value with HeLa was found to be 1.6. This molecule also registered a half-inhibitory concentration (IC50) in the data set with HEK-293 (Homo sapiens, HEK293) of 120 ± 0.9 µM. In data set [1], the selectivity ratio was found to be 1.71. The midpoint of inhibition with Caco-2, the IC50, lay at 69.8 ± 0.8 µM. For the same molecule, the “Φ, emission quantum yield” value in data set [2] is reported as 0.006.

`Brc1ccc2nc(COc3ccccc3-c3nc4ccccc4s3)c(COc3ccccc3-c3nc4ccccc4s3)nc2c1` [Compound 7b] showed a melting point of 145 °C. The molecule further yielded a concentration for half-maximal inhibition (IC50) in the data set on HeLa (Homo sapiens, HeLa) greater than 100 µM. The “SF (selectivity factor) HeLa” value in the data set with HeLa is less than 1.4. The same molecule displayed an IC50 with HEK-293 (Homo sapiens, HEK293) of 140 ± 1.4 µM. Besides, in data set [1], the selectivity ratio came out at 1.28. Further, in the data set on Caco-2, half-maximal inhibition (IC50) required 109 ± 0.8 µM. Further, the “Φ, emission quantum yield” value in data set [2] worked out at 0.017.

`Clc1ccc2nc(COc3ccccc3-c3nc4ccccc4s3)c(COc3ccccc3-c3nc4ccccc4s3)nc2c1` [Compound 7c] came in with a melting point of 150 °C. In the data set with HeLa (Homo sapiens, HeLa), the IC50 stood at 68.61 ± 0.2 µM. Further, in the data set with HeLa, the “SF (selectivity factor) HeLa” value is 2.3. In addition, the IC50 in the data set with HEK-293 (Homo sapiens, HEK293) turned out to be 160 ± 2.1 µM. Moreover, the selectivity ratio in data set [1] was determined as 2.13. In the data set on Caco-2, this molecule displayed a half-maximal inhibitory concentration (IC50) of 75 ± 3.5 µM. For the same molecule, the “Φ, emission quantum yield” value in data set [2] was determined as 0.017.

Take `Fc1ccc2nc(COc3ccccc3-c3nc4ccccc4s3)c(COc3ccccc3-c3nc4ccccc4s3)nc2c1` [Compound 7d]: the melting point lay in the range of 135 to 139 °C. The half-maximal inhibitory concentration (IC50) in the data set with HeLa (Homo sapiens, HeLa) amounted to 117 ± 5.4 µM. Also, in the data set on HeLa, the “SF (selectivity factor) HeLa” value is greater than 1.7. The IC50 in the data set on HEK-293 (Homo sapiens, HEK293) was greater than 200 µM. The selectivity ratio in data set [1] was greater than 2.17. The molecule further came in with a half-inhibitory concentration (IC50) in the data set on Caco-2 of 92 ± 4.9 µM. Further, the “Φ, emission quantum yield” value in data set [2] amounted to 0.04.

Take `Fc1cc2nc(COc3ccccc3-c3nc4ccccc4s3)c(COc3ccccc3-c3nc4ccccc4s3)nc2cc1Cl` [Compound 7f]: the half-inhibitory concentration (IC50) is 44.3 ± 0.3 µM in the data set with HeLa (Homo sapiens, HeLa); greater than 200 µM with HEK-293 (Homo sapiens, HEK293); greater than 100 µM in the data set with Caco-2. In addition, the “SF (selectivity factor) HeLa” value in the data set on HeLa is given as greater than 4.5. Further, in data set [1], the selectivity ratio is greater than 2. Moreover, in data set [2], the “Φ, emission quantum yield” value was determined as 0.014.
